Assays:
[1] = target: Prostaglandin F2-alpha receptor (Sheep); assay: Binding potency towards Prostaglandin F2 alpha receptor (competitive binding) with natural [3H]-PGF 2 alpha in ovine luteal cells (OLC)
[2] = target: Prostaglandin F2-alpha receptor (Sheep); assay: as above; remark: listed apart in the source

Q: [N-]=[N+]=Nc1ccc(CC[C@H](O)/C=C/[C@@H]2[C@@H](C/C=C\CCCC(=O)O)[C@@H](O)C[C@H]2O)cc1I was tested. Which IC50 [1] did it give?
A: Its IC50 is 0.35 µM.

Q: For [N-]=[N+]=Nc1ccc(CC[C@H](O)/C=C/[C@@H]2[C@@H](C/C=C\CCCC(=O)O)[C@@H](O)C[C@H]2O)c(O)c1, which IC50 [2] is on record?
A: Its IC50 is 6.1 µM.

Q: Which IC50 [2] does the source give for [N-]=[N+]=Nc1cc(O)cc(OC[C@H](O)/C=C/[C@@H]2[C@@H](C/C=C\CCCC(=O)O)[C@@H](O)C[C@H]2O)c1 here?
A: Its IC50 is 11 µM.
